From patent US20140309275A1, “Sphingosine Analogs, Compositions, and Methods Related Thereto” (Emory University, priority 2011, published 2014)
Where two headings read alike, the source gives them in different places.

What was measured:
Type in all cases: cell-based
[1] = system: P. falciparum chloroquine susceptible (CQ-S) D6 strain; assay: [3H]-labeled hypoxanthine uptake assay, P. falciparum D6; conditions: for IC50: Plasmodium falciparum; for IC50 D6: Table 1
Text: (§1) The [^3H]-labeled hypoxanthine uptake method was utilized to assay the effectiveness of our sphingoid base analogs in vitro for their ability to inhibit the growth and replication of malaria parasites in RBCs. […] The simian malaria parasite P. knowlesi has also been recognized as a human pathogen of public health concern in South East Asia, and it can be cultured effectively in vitro. This species was therefore included to probe the potential of multi-species efficacy within this compound class.
(§2) Cryopreserved iRBCs were provided by Dr. John W. Barnwell from the Centers for Disease Control and Prevention and maintained in in vitro culture as described in Trager & Jensen, Science 1976, 193 (4254), 673-5.
(§3) Compounds in Table 1 were dissolved in 70% 200-proof pharmaceutical grade ethanol, and a working solution of 0.2 mg/mL was prepared using hypoxanthine- and gentamicin-free incomplete RPMI 1640 (Gibco). Compounds in Table 2 were dissolved in 200 proof pharmaceutical grade ethanol at a concentration of 50 μM and then conjugated to BSA (Sigma) as described.^5 A working solution of 0.2 mg/mL was prepared using hypoxanthine- and gentamicin-free incomplete RPMI 1640 (Gibco). Two compounds were tested per plate in triplicate starting at 0.2 mg/mL and diluted two-fold down to 0.019 μg/mL using hypoxanthine- and gentamicin-free RPMI.
(§4) Parasite inoculum was prepared by mixing parasitized blood, uninfected 0+RBCs (for P. falciparum strains) or rhesus RBCs (for P. knowlesi) and culture medium (deficient in hypoxanthine and gentamicin) to a final concentration of 1% parasitemia and 1% haematocrit. A negative control was prepared by diluting uninfected erythrocytes to 1% haematocrit in culture medium. [^3H]-labeled hypoxanthine was added at 24 h (for P. falciparum strains) or 12 h (P. knowlesi) and the culture was collected 48 h or 12 h later for P. falciparum or P. knowlesi, respectively. [^3H] uptake was measured by using a scintillation spectrophotometer (Wallac Oy 1450 MicroBeta reader).
(§5) Triplicate wells were used to calculate the IC50 for each compound using the software XLFit v5.2 using the sigmoidal model 601. Average and standard deviations were calculated using Microsoft Excel.

[2] = system: P. falciparum chloroquine resistant (CQ-R) W2 strain; assay: [3H]-labeled hypoxanthine uptake assay, P. falciparum W2; conditions: for IC50: Plasmodium falciparum; for IC50 W2: Table 1
Text: as §1, §2, §3, §4, §5

P. knowlesi H strain = assay: [3H]-labeled hypoxanthine uptake assay, P. knowlesi; conditions: Table 1, compounds dissolved in 70% ethanol, not BSA-conjugated; for IC50: Plasmodium knowlesi
Text: as §1, with “class. The data were generated with the known antimalarial drugs chloroquine and mefloquine as controls.” for “class.”
The H strain of P. knowlesi has been adapted to in vitro culture using Macaca mulatta (rhesus monkey) RBCs essentially as described in Kocken et al., Infect Immun 2002, 70 (2), 655-60 (the media was supplemented with 10% human AB serum).
Chloroquine (Sigma) and mefloquine (Sigma) were used as controls. Compounds in Table 1 were dissolved in 70% 200-proof pharmaceutical grade ethanol, and a working solution of 0.2 mg/mL was prepared using hypoxanthine- and gentamicin-free incomplete RPMI 1640 (Gibco). Compounds in Table 2 were dissolved in 200 proof pharmaceutical grade ethanol at a concentration of 50 μM and then conjugated to BSA (Sigma) as described.^5 A working solution of 0.2 mg/mL was prepared using hypoxanthine- and gentamicin-free incomplete RPMI 1640 (Gibco). Two compounds were tested per plate in triplicate starting at 0.2 mg/mL and diluted two-fold down to 0.019 μg/mL using hypoxanthine- and gentamicin-free RPMI.
as §4, §5

[3] = system: PC-3 prostate cancer cells; assay: WST-1 cytotoxicity assay, PC-3; conditions: 24 h treatment
Method: (§6) Prostate cancer cells were treated with enigmol or analogue for 24 h, and cytotoxicity was assessed by WST-1 assay. cLogPs were calculated with QuikProp on Maestro.

[4] = system: LNCaP prostate cancer cells; assay: WST-1 cytotoxicity assay, LNCaP; conditions: Homo sapiens, 24 h treatment
Method: as §6

[5] = D6, Table 2, compounds conjugated to BSA, read-out: IC50 D6
[6] = W2, Table 2, compounds conjugated to BSA, read-out: IC50 W2
[7] = D6, Table 1, compounds dissolved in 70% ethanol, not BSA-conjugated, read-out: IC50 D6
[8] = W2, Table 1, compounds dissolved in 70% ethanol, not BSA-conjugated, read-out: IC50 W2
[9] = compounds dissolved in 70% ethanol, not BSA-conjugated

CCCCCCCCCCCCC[C@H](O)C[C@H](O)C1(N)CC1 (racemic) [ESPD-0860, (+/−)-syn1-(1-aminocyclopropyl)hexadecane-1,3-diol]
IC50 [1, 5]: 5.5 µM
IC50 [2, 6]: 9.9 ± 7 µM

CCCCCCCCCCCCC[C@H](O)C[C@H](O)[C@@H]1CCCN1 [ESPD-0522, (1S,3S)-1-((S)-pyrrolidin-2-yl)hexadecane-1,3-diol]
IC50 (P. knowlesi H strain): 6.25 ± 0.27 µM
IC50 [1, 7]: 9.7 ± 1 µM
IC50 [2, 8]: 4.39 ± 1.5 µM

CCCCCCCCCCCCCC(O)C/C(=N\O)C(C)(C)N (centres unmarked) [ESPD-0858, (+/−,E)-2-amino-5-hydroxy-2-methyloctadecan-3-one oxime]
IC50 [1, 5]: 7.44 µM
IC50 [3]: 24 µM
IC50 [2, 6]: 10 ± 2.7 µM
IC50 [4]: 24 µM

CCCCCCCCCCCCC[C@H](O)C[C@H](O)[C@H](C)NC(C)=O [ESPD-0506, N-((2S,3S,5S)-3,5-dihydroxyoctadecan-2-yl)acetamide]
IC50 (P. knowlesi H strain): > 58 µM
IC50 P. knowlesi (P. knowlesi H strain): no activity
IC50 [1, 7]: 11.1 ± 0.5 µM
IC50 D6 [1, 9]: no activity
IC50 [2, 8]: 13.1 ± 3.7 µM
IC50 W2 [2, 9]: no activity

OC(c1cc(C(F)(F)F)nc2c(C(F)(F)F)cccc12)C1CCCCN1 (centres unmarked) [Mefloquine, reference compound]
IC50 (P. knowlesi H strain): 0.04 µM
IC50 [2, 6]: 0.004 µM

CCCCCCCCCCCCC(F)(F)[C@@H](O)C[C@H](O)[C@H](C)N [ESPD-01407, (2S,3S,5S)-2-amino-6,6-difluorooctadecane-3,5-diol]
IC50 [3]: 9 µM
IC50 [4]: 10 µM

CCCCCCCCCCCCC[C@H](O)C[C@H](O)C(C)(C)NC (racemic) [ESPD-1158, (+/−)-syn-2-methyl-2-(methylamino)octadecane-3,5-diol]
IC50 [1, 5]: 0.7 ± 0.5 µM
IC50 [2, 6]: 0.25 µM
IC50 ([2]; W2, text b107, BSA-conjugated, strain not stated (matches W2 of Table 2), read-out: IC50): 0.25 µM

CCCCCCCCCCCCC[C@@H](O)C[C@H](O)C1(N)CC1 (racemic) [ESPD-0859, (+/−)-anti-1-(1-aminocyclopropyl)hexadecane-1,3-diol]
IC50 [1, 5]: 11.2 µM
IC50 [2, 6]: 7.2 ± 4 µM

CCCCCCCCCCCCCCCC(=O)N[C@@H](C)[C@@H](O)C[C@@H](O)CCCCCCCCCCCCC [ESPD-0514, N-((2S,3S,5S)-3,5-dihydroxyoctadecan-2-yl)palmitamide]
IC50 (P. knowlesi H strain): > 37 µM
IC50 P. knowlesi (P. knowlesi H strain): no activity
IC50 [1, 7]: > 37 µM
IC50 D6 [1, 9]: no activity
IC50 [2, 8]: > 37 µM
IC50 W2 [2, 9]: no activity

CCCCCCCCCCCCC[C@H](O)C[C@H](O)[C@H](C)N(C)C [ESPD-0513, (2S,3S,5S)-2-(dimethylamino)octadecane-3,5-diol]
IC50 (P. knowlesi H strain): 6.83 ± 0.09 µM
IC50 [1, 7]: 7 ± 0.6 µM
IC50 [2, 8]: 4.42 ± 1.1 µM

CCCCCCCCCCCCC[C@@H](O)C[C@H](O)C(C)(C)N (racemic) [ESPD-0561, (+/−)-anti-2 amino-2-methyloctadecane-3,5-diol]
IC50 [1, 5]: 4.1 ± 0.7 µM
IC50 [3]: 10 µM
IC50 [2, 6]: 7.43 µM
IC50 [4]: 25 µM

CCCCCCCCCCCCC(F)(F)[C@H](O)C[C@H](O)[C@H](C)N [ESPD-01406, (2S,3S,5R)-2-amino-6,6-difluorooctadecane-3,5-diol]
IC50 [3]: 9 µM
IC50 [4]: 10 µM

C[C@H](N)[C@@H](O)C[C@@H](O)CCCCC/C=C/CCCCCC(F)(F)F [ESPD-01186]
IC50 [3]: 27 µM
IC50 [4]: 14 µM

CCCCCCC#CCCCCC[C@H](O)C[C@H](O)[C@H](C)N [ESPD-01185]
IC50 [3]: > 100 µM
IC50 [4]: > 100 µM

CCCCCCCCCCCCC(F)(F)[C@@H](O)C[C@@H](O)[C@H](C)N [ESPD-01409, (2S,3R,5S)-2-amino-6,6-difluorooctadecane-3,5-diol]
IC50 [3]: 10 µM
IC50 [4]: 10 µM

CCCCCCCCCCCCC[C@H](O)C[C@@H](O)[C@H](C)N [ESPD-0505, (2S,3R,5S)-2-Aminooctadecane-3,5-diol]
IC50 (P. knowlesi H strain): 20.3 ± 2 µM
IC50 [1, 7]: 17.8 ± 1.1 µM
IC50 [2, 8]: 9.22 ± 1.6 µM

CCCCCCCCCCCCC[C@@H](O)C[C@H](O)[C@H](C)N [ESPD-0503]
IC50 (P. knowlesi H strain): 17.6 ± 1.8 µM
IC50 [1, 7]: 12.7 ± 1.2 µM
IC50 [2, 8]: 8.17 ± 1.8 µM

C[C@H](N)[C@@H](O)C[C@@H](O)CCCCCC#CCCCCCC(F)(F)F [ESPD-01184]
IC50 [3]: 92 µM
IC50 [4]: > 100 µM

C[C@H](N)[C@@H](O)C[C@@H](O)CCCCCCCCCCCCC(F)(F)F [ESPD-01183]
IC50 [3]: 13 µM
IC50 [4]: 13 µM

CCCCCC/C=C\CCCCC[C@H](O)C[C@H](O)[C@H](C)N [ESPD-01192]
IC50 [3]: 25 µM
IC50 [4]: 19 µM

CCCCCC/C=C/CCCCC[C@H](O)C[C@H](O)[C@H](C)N [ESPD-01187]
IC50 [3]: 33 µM
IC50 [4]: 19 µM

CCN(CC)CCCC(C)Nc1ccnc2cc(Cl)ccc12 (centres unmarked) [Chloroquine, reference compound]
IC50 ([1]; D6, read-out: IC50 D6, Table 1, compounds dissolved in 70% ethanol, not BSA-conjugated): 0.02 µM
IC50 ([1]; D6, read-out: IC50 D6, Table 2, compounds conjugated to BSA): 0.011 µM
IC50 ([2]; W2, read-out: IC50 W2, Table 1, compounds dissolved in 70% ethanol, not BSA-conjugated): 0.18 µM
IC50 ([2]; W2, read-out: IC50 W2, Table 2, compounds conjugated to BSA): 0.093 µM

CCCCCCCCCCCCC(F)(F)[C@H](O)C[C@@H](O)[C@H](C)N [ESPD-01408, (2S,3R,5R)-2-amino-6,6-difluorooctadecane-3,5-diol]
IC50 [3]: 9 µM
IC50 [4]: 10 µM

CCCCCCCCCCCCC[C@H](O)C[C@@H](O)[C@H](C)NC [ESPD-0559, (2S,3R,5S)-2-(methylamino)octadecane-3,5-diol]
IC50 [1, 7]: 14.6 ± 0.64 µM
IC50 [2, 8]: 8.09 ± 0.24 µM

CCCCCCCCCCCCC[C@H](O)C[C@H](O)C(C)(C)N (racemic) [ESPD-0560, (+/−)-syn-2 amino-2-methyloctadecane-3,5-diol]
IC50 [1, 5]: 5.2 ± 3 µM
IC50 [3]: 10 µM
IC50 [2, 6]: 4.67 ± 1 µM
IC50 [4]: 23 µM
